Experimental data published in patent US11802127B2, “3,4-dihydro-2,7-naphthyridine-1,6(2H,7H)-diones as MEK inhibitors” (Pfizer Inc., priority 2021, dated 2023).

test: MDR1 LLC-PK1 and BCRP MDCKII Permeability Assay: permeability coefficient (Papp); assay type: in vitro ADME; conditions: MDCK, test article 1 μM, 37° C.
In short: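 Bidirectional (A to B, B to A) transport of test article (1 μM, 1% organic) across MDR1-transfected LLC-PK1 or BCRP-transfected MDCKII (canine P-gp knockout) monolayers, 2 h at 37° C., 5% CO2, in triplicate. Lucifer yellow monitored monolayer integrity. Concentrations measured by LC-MS/MS against labetalol internal standard.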

| Compound | Papp at 2 h, 1 μM [×10⁻⁶ cm/s] |
| --- | --- |
| CSc1ccc(Nc2c3c(cc(=O)n2C)CCN(OCCO)C3=O)c(F)c1 [Example 6, 8-((2-fluoro-4-(methylthio)phenyl)amino)-2-(2-hydroxyethoxy)-7-methyl-3,4-dihydro-2,7-naphthyridine-1,6(2H,7H)-dione] | 32.1 |
| Cn1c(Nc2ccc(Br)cc2F)c2c(cc1=O)CCN(OCCO)C2=O [Example 7, 8-((4-bromo-2-fluorophenyl)amino)-2-(2-hydroxyethoxy)-7-methyl-3,4-dihydro-2,7-naphthyridine-1,6(2H,7H)-dione] | 34.5 |
| Cn1c(Nc2ccc(I)cc2F)c2c(cc1=O)CCN(OCCO)C2=O [Example 8, 8-((2-fluoro-4-iodophenol)amino)-2-(2-hydroxyethoxy)-7-methyl-3,4-dihydro-2,7-naphthyridine-1,6(2H,7H)-dione] | 34.2 |
| CCc1ccc(Nc2c3c(cc(=O)n2C)CCN(OCCO)C3=O)c(F)c1 [Example 14, 8-((4-ethyl-2-fluorophenyl)amino)-2-(2-hydroxyethoxy)-7-methyl-3,4-dihydro-2,7-naphthyridine-1,6(2H,7H)-dione] | 31.1 |
| Cn1c(Nc2ccc(OC(F)F)cc2F)c2c(cc1=O)CCN(OCCO)C2=O [Example 22, 8-((4-(difluoromethoxy)-2-fluorophenyl)amino)-2-(2-hydroxyethoxy)-7-methyl-3,4-dihydro-2,7-naphthyridine-1,6(2H,7H)-dione] | 24.6 |
| Cc1c2c(c(Nc3ccc(Br)cc3F)n(C)c1=O)C(=O)N(OCCO)CC2 [Example 36, 8-((4-bromo-2-fluorophenyl)amino)-2-(2-hydroxyethoxy)-5,7-dimethyl-3,4-dihydro-2,7-naphthyridine-1,6(2H,7H)-dione] | 31.1 |
